The values that follow come from patent publication US20230340011A1 (Asteroid Therapeutics, priority 2022, published 2023).

The target of one assay is SREBP-2 (Homo sapiens (Human), UniProt Q12772). Kind of assay: In vitro assay SREBP-2: PathHunter U2OS SREBP-2 Nuclear Translocation Cell Line, U18666A-stimulated. It is filed as cell-based. To be noted: PathHunter U2OS SREBP-2 nuclear translocation cells, U18666A 10 μM, overnight (16 hours).
A further assay has as its target LXRβ (Homo sapiens (Human), UniProt P55055). Kind of assay: In vitro assay LXRβ: PathHunter NHR CHO cells, LXRβ / Steroid Receptor Co-activator Peptide enzyme fragment complementation. It is filed as cell-based. To be noted: PathHunter NHR CHO cells, full-length human LXRβ and SRCP, chemiluminescent signal; read-out: LXRβ PPI. The gist of the method: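 Enzyme fragment complementation read-out: CHO cells stably expressing ProLink-tagged full-length human LXRβ plus nuclear enzyme acceptor–SRCP fusion, seeded and held overnight at 37° C. Medium with charcoal-dextran filtered serum; final vehicle 1%. Chemiluminescence measured after signal generation.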

Molecules are shown by their SMILES.

Sequence of LXRβ (P55055 whole entry, the tested form may be a part): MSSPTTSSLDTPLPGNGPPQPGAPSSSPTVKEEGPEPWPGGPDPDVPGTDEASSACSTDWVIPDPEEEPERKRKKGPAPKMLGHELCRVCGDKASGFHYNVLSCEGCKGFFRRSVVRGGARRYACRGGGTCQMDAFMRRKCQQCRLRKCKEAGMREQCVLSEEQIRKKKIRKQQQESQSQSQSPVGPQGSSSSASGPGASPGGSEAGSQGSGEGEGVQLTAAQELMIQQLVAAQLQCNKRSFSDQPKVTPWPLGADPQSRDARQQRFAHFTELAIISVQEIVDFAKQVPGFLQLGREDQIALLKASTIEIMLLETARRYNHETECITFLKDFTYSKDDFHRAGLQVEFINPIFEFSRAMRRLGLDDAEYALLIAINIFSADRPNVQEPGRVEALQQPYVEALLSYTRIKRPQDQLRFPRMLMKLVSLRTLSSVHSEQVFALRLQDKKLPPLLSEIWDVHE

One may read the IC50 as the concentration that gives 50% inhibition. Read a high IC50 as weaker potency in that assay. For the compound `Cc1cc(CC[C@@H](C)[C@H]2CC[C@H]3[C@@H]4CC=C5C[C@@H](O)CC[C@]5(C)[C@H]4CC[C@]23C)ncn1` [Example 189, (1R,3aS,3bS,7S,9aR,9bS,11aR)-9a,11a-dimethyl-1-[(2R)-4-(6-methylpyrimidin-4-yl)butan-2-yl]-1H,2H,3H,3aH,3bH,4H,6H,7H,8H,9H,9aH,9bH,10H,11H,11aH-cyclopenta[a]phenanthren-7-ol], the IC50 against SREBP-2 is below 0.25 µM. Also, the EC50 on LXRβ fell in the range of 1 to 10 µM.

In the case of `Cc1nccc(CC[C@@H](C)[C@H]2CC[C@H]3[C@@H]4CC=C5C[C@@H](O)CC[C@]5(C)[C@H]4CC[C@]23C)n1` [Example 190, (3S,8S,9S,10R,13R,14S,17R)-10,13-dimethyl-17-((R)-4-(2-methylpyrimidin-4-yl)butan-2-yl)-2,3,4,7,8,9,10,11,12,13,14,15,16,17-tetradecahydro-1H-cyclopenta[a]phenanthren-3-ol], the IC50 against SREBP-2 was 0.25 to 1 µM. Besides, at LXRβ, the EC50 was in the range of 1 to 10 µM.

Consider `Cc1ccnc(CC[C@@H](C)[C@H]2CC[C@H]3[C@@H]4CC=C5C[C@@H](O)CC[C@]5(C)[C@H]4CC[C@]23C)n1` [Example 191, (3S,8S,9S,10R,13R,14S,17R)-10,13-dimethyl-17-((R)-4-(4-methylpyrimidin-2-yl)butan-2-yl)-2,3,4,7,8,9,10,11,12,13,14,15,16,17-tetradecahydro-1H-cyclopenta[a]phenanthren-3-ol], for which the IC50 on SREBP-2 was below 0.25 µM. Besides, the EC50 at LXRβ is 0.25 to 1 µM.

Take `Cc1cnc(CC[C@@H](C)[C@H]2CC[C@H]3[C@@H]4CC=C5C[C@@H](O)CC[C@]5(C)[C@H]4CC[C@]23C)nc1` [Example 192, (3S,8S,9S,10R,13R,14S,17R)-10,13-dimethyl-17-((R)-4-(5-methylpyrimidin-2-yl)butan-2-yl)-2,3,4,7,8,9,10,11,12,13,14,15,16,17-tetradecahydro-1H-cyclopenta[a]phenanthren-3-ol]: at SREBP-2, the IC50 is below 0.25 µM. The EC50 at LXRβ is above 10 µM.

For `C[C@H](CCC(=O)N1CCC(O)(C2CC2)CC1)[C@H]1CC[C@H]2[C@@H]3CC=C4C[C@@H](O)CC[C@]4(C)[C@H]3CC[C@]12C` [Example 193, (R)-1-(4-cyclopropyl-4-hydroxypiperidin-1-yl)-4-((3S,8S,9S,10R,13R,14S,17R)-3-hydroxy-10,13-dimethyl-2,3,4,7,8,9,10,11,12,13,14,15,16,17-tetradecahydro-1H-cyclopenta[a]phenanthren-17-yl)pentan-1-one], on SREBP-2, the IC50 was below 0.25 µM. Further, at LXRβ, the EC50 was below 0.25 µM.

Regarding `C[C@H](CCC(=O)N1CC=C(C2CC2)CC1)[C@H]1CC[C@H]2[C@@H]3CC=C4C[C@@H](O)CC[C@]4(C)[C@H]3CC[C@]12C` [Example 193A, (R)-1-(4-cyclopropyl-3,6-dihydropyridin-1(2H)-yl)-4-((3S,8S,9S,10R,13R,14S,17R)-3-hydroxy-10,13-dimethyl-2,3,4,7,8,9,10,11,12,13,14,15,16,17-tetradecahydro-1H-cyclopenta[a]phenanthren-17-yl)pentan-1-one], the IC50 on SREBP-2 is below 0.25 µM. Moreover, the EC50 on LXRβ is 0.25 to 1 µM.

As for `CCCN(CCC)C(=O)C(=O)O[C@@H](C)[C@H]1CC[C@H]2[C@@H]3CC=C4C[C@@H](O)CC[C@]4(C)[C@H]3CC[C@]12C` [Example 196, (S)-1-((3S,8S,9S,10R,13S,14S,17S)-3-hydroxy-10,13-dimethyl-2,3,4,7,8,9,10,11,12,13,14,15,16,17-tetradecahydro-1H-cyclopenta[a]phenanthren-17-yl)ethyl 2-(dipropylamino)-2-oxoacetate], the IC50 at SREBP-2 is below 0.25 µM. For the same compound, the EC50 on LXRβ lay in the range of 1 to 10 µM.

Regarding `CCN(C(=O)C(=O)O[C@@H](C)[C@H]1CC[C@H]2[C@@H]3CC=C4C[C@@H](O)CC[C@]4(C)[C@H]3CC[C@]12C)C(C)C` [Example 197, (S)-1-((3S,8S,9S,10R,13S,14S,17S)-3-hydroxy-10,13-dimethyl-2,3,4,7,8,9,10,11,12,13,14,15,16,17-tetradecahydro-1H-cyclopenta[a]phenanthren-17-yl)ethyl 2-(ethyl(isopropyl)amino)-2-oxoacetate], the IC50 against SREBP-2 is below 0.25 µM. Further, on LXRβ, the EC50 lay in the range of 0.25 to 1 µM.

Consider `C[C@H](OC(=O)C(=O)N1CCCC1)[C@H]1CC[C@H]2[C@@H]3CC=C4C[C@@H](O)CC[C@]4(C)[C@H]3CC[C@]12C` [Example 198, (S)-1-((3S,8S,9S,10R,13S,14S,17S)-3-hydroxy-10,13-dimethyl-2,3,4,7,8,9,10,11,12,13,14,15,16,17-tetradecahydro-1H-cyclopenta[a]phenanthren-17-yl)ethyl 2-oxo-2-(pyrrolidin-1-yl)acetate], for which the IC50 on SREBP-2 was below 0.25 µM. Further, the EC50 on LXRβ was in the range of 1 to 10 µM.

`C[C@H](OC(=O)C(=O)N1CCCCC1)[C@H]1CC[C@H]2[C@@H]3CC=C4C[C@@H](O)CC[C@]4(C)[C@H]3CC[C@]12C` [Example 199, (1S)-1-[(1S,3aS,3bS,7S,9aR,9bS,11aS)-7-hydroxy-9a,11a-dimethyl-1H,2H,3H,3aH,3bH,4H,6H,7H,8H,9H,9aH,9bH,10H,11H,11aH-cyclopenta[a]phenanthren-1-yl]ethyl2-oxo-2-(piperidin-1-yl)acetate] showed an IC50 at SREBP-2 below 0.25 µM. Besides, the EC50 at LXRβ lay within 0.25 to 1 µM.

`CCC1(O)CCN(C(=O)C(=O)O[C@@H](C)[C@H]2CC[C@H]3[C@@H]4CC=C5C[C@@H](O)CC[C@]5(C)[C@H]4CC[C@]23C)CC1` [Example 200, (S)-1-((3S,8S,9S,10R,13S,14S,17S)-3-hydroxy-10,13-dimethyl-2,3,4,7,8,9,10,11,12,13,14,15,16,17-tetradecahydro-1H-cyclopenta[a]phenanthren-17-yl)ethyl 2-(4-ethyl-4-hydroxypiperidin-1-yl)-2-oxoacetate] gave an IC50 on SREBP-2 below 0.25 µM. The EC50 at LXRβ lay within 1 to 10 µM.

Take `CC[C@@]1(OC)CCCN(C(=O)CC[C@@H](C)[C@H]2CC[C@H]3[C@@H]4CC=C5C[C@@H](O)CC[C@]5(C)[C@H]4CC[C@]23C)C1` [Example 201, (R)-1-((R)-3-ethyl-3-methoxypiperidin-1-yl)-4-((3S,8S,9S,10R,13R,14S,17R)-3-hydroxy-10,13-dimethyl-2,3,4,7,8,9,10,11,12,13,14,15,16,17-tetradecahydro-1H-cyclopenta[a]phenanthren-17-yl)pentan-1-one]: the IC50 against SREBP-2 is below 0.25 µM. Further, the EC50 on LXRβ fell in the range of 1 to 10 µM.

`COc1nccc(N2CCN(C(=O)CC[C@@H](C)[C@H]3CC[C@H]4[C@@H]5CC=C6C[C@@H](O)CC[C@]6(C)[C@H]5CC[C@]34C)CC2)n1` [Example 202, (R)-4-((3S,8S,9S,10R,13R,14S,17R)-3-hydroxy-10,13-dimethyl-2,3,4,7,8,9,10,11,12,13,14,15,16,17-tetradecahydro-1H-cyclopenta[a]phenanthren-17-yl)-1-(4-(2-methoxypyrimidin-4-yl)piperazin-1-yl) pentan-1-one]: the IC50 against SREBP-2 is below 0.25 µM. In addition, the EC50 at LXRβ was above 10 µM.

With `COc1cc(N2CCN(C(=O)CC[C@@H](C)[C@H]3CC[C@H]4[C@@H]5CC=C6C[C@@H](O)CC[C@]6(C)[C@H]5CC[C@]34C)CC2)ncn1` [Example 203, (4R)-4-[(1R,3aS,3bS,7S,9aR,9bS,11aR)-7-hydroxy-9a,11a-dimethyl-1H,2H,3H,3aH,3bH,4H,6H,7H,8H,9H,9aH,9bH,10H,11H,11aH-cyclopenta[a]phenanthren-1-yl]-1-[4-(6-methoxypyrimidin-4-yl)piperazin-1-yl]pentan-1-one], the IC50 at SREBP-2 was below 0.25 µM. Also, the EC50 at LXRβ is above 10 µM.
